Experimental findings from patent US11203598B2, “Compounds for repressing cancer cell growth” (Institute For Cancer Research, priority 2018, dated 2021) are described below.

In one data set the test system is 8226 cells. Description: combination treatment with bortezomib, combination index (CompuSyn). The class given is cell-based. Conditions: 48 hours, 0-100 nM Bortezomib with 0-200 μM analog. The protocol:
Referring to FIG. 21 (panels A and B), 3×10^4 cells/well of 8226 cells were seeded in a 96-well plate. The cells were treated for 48 hours with a combination of 0-100 nM Bortezomib with 0-200 μM Analog 4 (see, panel A) and 0-100 nM Bortezomib with 0-200 μM Analog 11 (see, FIG. 21, panel B). CompuSyn software was used to analyze the combination index of both drugs.

The test system of data set [1] is SW480 cells. Description: CellTiter-Glo luminescent cell viability assay. The class given is cell-based, human. The protocol: Cells were seeded in 96-well plates at a density of 5×10^3 cells per well. 20 μL of CellTiter-Glo® Reagent was added directly to the wells, following the manufacturer's protocol, and bioluminescence signal was determined using an IVIS imaging system.
Cell lines at a concentration of 4×10^3 cells/well were seeded out on an opaque 96-well plate and treated with CB002 and Analog 11 in ranging doses starting from 200 μmol/L with DMSO controls. At 72 hours after treatment, cells were mixed with 30 μL Cell Titer-Glo reagent and after ten minutes of room temperature incubation were imaged using IVIS imaging system (Xenogen).
To begin establishing the potential of CB002 as a candidate therapeutic agent, its therapeutic index was determined by treating cancer (DLD-1, SW480, and RXF393) and normal (WI38 and MRC5) cell lines with concentrations of CB002 ranging from 0-500 μM for a period of 72 hours and assessing cell viability by the CellTiter-Glo® luminescence assay (see, FIG. 2). CB002 has a significant therapeutic index among the cells tested.
(ATP-based viability assays read luminescence as a measure of living cells.)

The test system of data set [2] is MM1S Bortezomib resistant cells. Description: Cell Titer-Glo cell viability with bortezomib. The following applies: 25 μM Analog 4. It counts as cell-based. The protocol:
Referring to FIG. 21 (panel C), 3×10^4 cells/well of MM1S parental and Bortezomib MM1S resistant cells were seeded in a 96-well plate. Cell viability was determined by the Cell Titer-Glo® Assay.

Data set [3] deals with Noxa in 8226 bortezomib resistant multiple myeloma cell line. Description: Western blot of Noxa. It counts as cell-based. The following applies: 25 μM Analog 4, 100 μM Analog 11. The protocol:
Referring to FIG. 20 (panel C), 1×10^6 cells/well were seeded in a 12-well plate. 8226 parental and resistant multiple myeloma cell lines were treated with 100 μM CB002, 25 μM Analog 4, or 100 μM Analog 11.

The subject of data set [4] is SW480 cells. Description: apoptosis assay, sub-G1 analysis (propidium iodide, flow cytometry). It counts as cell-based, human. Conditions: 25 μM, 48 hours. The protocol: (§1) Apoptotic cells were quantified by sub-G1 analysis. Cells were seeded at a density of 2.5×10^5 to 5×10^5 in a 6-well plate and treated for 48-72 hours. After treatment, adherent cells were trypsinized and collected along with floating cells, washed with PBS and fixed in 70% ethanol. Cells were then incubated in a Phosphate-citric acid buffer (0.2 M Na2HPO4+0.1 M Citric Acid, pH 7.8) at room temperature for 5 minutes, spun down and resuspended for staining with 50 μg/mL propidium iodide (PI) in the presence of 250 μg/mL pancreatic ribonuclease (RNase A). Sub-G1 analyses were performed using an Epics Elite Epics flow cytometer (Coulter-Beckman).
(§2) Cells were seeded out at 1×10^6 cells/well on six well plates and treated with CB002 and Analog 11 at ranging doses with DMSO controls. Cells were harvested after 72 hours of treatment, all cells including floating cells were fixed with ethanol and stained with Propidium Iodide and then analyzed using Epics Elite flow cytometer to measure the DNA content of the stained cells.
On the technique in general: Flow cytometry measures light scatter and fluorescence of single cells or particles in a stream.

In a further data set the test system is WI38 normal cells. The data set is described as above. The class given is cell-based, human. Conditions: 25 μM, 48 hours. The protocol: as §1, §2
In data set [5] the test system is p53 pathway proteins in SW480 cells. Description: Western blot of p53, p53 targets, apoptosis and autophagy markers. The following applies: for Noxa protein expression: SW80 cells, 24 hours. The class given is cell-based, human. The protocol: (§3) After treatment, cells were harvested by trypsinization, washed with PBS, and lysed with RIPA buffer (Sigma-Aldrich) for 30 minutes to 1 hour at 4° C. Protein lysates were spun down and supernatant was collected. Protein quantification was performed using a Pierce™ BCA Protein Assay Kit (Thermo Fisher Scientific). 1×NuPAGE® LDS sample buffer (Thermo Fisher Scientific) and 2-Mercaptoethanol as the reducing agent (Sigma-Aldrich) were added to protein lysates, followed by boiling for 15 minutes at 95° C. Equal total protein amounts samples were loaded into NuPAGE™ Novex™ 4-12% Bis-Tris Protein Gels (1.5 mm, Thermo Fisher Scientific) and gel eletrophoresis was performed with NuPAGE™ MES SDS Running Buffer. Proteins were transferred onto an Immobilon-P membrane (PVDF, EMD Millipore) using a Bio-Rad system with a 10% Tris-Glycine and 10% methanol transfer buffer diluted in distilled and deionized water. After transfer, membranes were blocked with 10% milk in TBST solution and then incubated overnight with primary antibody, washed with TBST and incubated with secondary antibody for 1 hour. Incubations were performed in 5% milk in TBST solution. Signal was detected by using a chemiluminescent detection kit, followed by autoradiography. The following antibodies were used: p53 (DO-1, 1:1000, Santa Cruz), p73 (1:1000, Bethyl Laboratories), p21 and NOXA (1:250, EMD Millipore), DR5, FADD, cleaved caspase 3, cleaved caspase 8, cleaved PARP, and LC3B (1:1000, Cell Signaling), and β-actin (1:10000, Sigma).
(§4) Proteins were isolated using NP40 Lysis Buffer (20 mmol/L Tris-HCl (pH 7.4), 150 mmol/L NaCl, 5 mmol/L EDTA, 50 mmol/L NaF, 1 mmol/L glycerophosphate, 5 mmol/L Na4P2O7, 0.5% NP40, and complete protease inhibitor cocktail (Roche)) and electrophoresed through 4-12% SDS-PAGE followed by semi-dry transfer to PVDF membranes. The PVDF membranes were incubated with different antibodies including p21 (OP64-100UG, EMD Millipore (world wide web at emdmillipore.com/US/en/product/Antip21WAF1-(Ab-1)-Mouse-mAb-(EA10), EMD_BIO-OP64)), PUMA (12450S, Cell Signaling Technology, world wide web at cellsignal.com/products/primary-antibodies/puma-d30c10-rabbit-mab/12450), DR5 (3696S, Cell Signaling Technology, world wide web at cellsignal.com/products/primary-antibodies/dr5-antibody/3696?N=4294956287&Ntt=3696s&fromPage=plp& requestid=541668), p53(sc-126, Santa Cruz, world wide web at scbt.com/scbt/fr/product/p53-antibody-do-1), and RAN (610341, BD Transduction Laboratories, world wide web at bdbiosciences.com/us/reagents/research/antibodies-buffers/cell-biologyreagents/cell-biology-antibodies/purified-mouse-anti-ran-20ran/p/610341) in blocking buffer at 4° C. overnight. Bound antibody will be detected using IRDye secondary antibodies (LI-COR Biosciences,) in Odyssey blocking buffer for 1 hour then imaged using the ODYSSEY infrared imaging system.
For orientation: Immunoblotting shows a protein as a band on a membrane.

In a further data set the test system is cell cycle G2 checkpoint. Description: propidium iodide staining cell cycle analysis. The class given is cell-based. Conditions: 24 hour treatment, alone and with etoposide. The protocol:
Referring to FIG. 22 (panels A-F), propidium iodide staining cell cycle analysis for 24 hour treatment with DMSO (panel A), CB002 (panel B), CB002 and etoposide (panel C), etoposide (panel D), caffeine (panel E), and caffeine and etoposixe (panel F). […] The deregulation of the G2 checkpoint as a mechanism by caffeine prevents […] tumor cells that are treated with DNA damaging drugs, such as etoposide, from arresting to have time to repair, and thus sensitizes cancer cells to cell death.

The subject of data set [6] is p53 pathway proteins in DLD-1 cells. Description: Western blot of p53 targets and LC3B. The class given is cell-based, human. The following applies: DLD-1, 24 hours. The protocol: as §3, §4

SMILES strings stand for the structures.

For the compound `Cn1c(=O)c2[nH]c(Nc3cccc(C(F)(F)F)c3)nc2n(C)c1=O` [Analog 4], in the data set with 8226 cells, the “synergy with Bortezomib (combination index)” value is reported as “synergyze the most with Bortezomib”. Moreover, in the data set with SW480 cells [1] (Cell Titer-Glo, serial dilution), the “IC50 ranking among CB002 analogs” value is “most potent compound”. For the same compound, the “sensitization to Bortezomib (cell viability)” value in data set [2] was “able to sensitize MM1S resistant cells to Bortezomib treatment”. For the same compound, the Noxa expression entry in data set [3] is listed as “able to induce Noxa expression”; in data set [5] (24 hour, 100 μM CB002, 25 NM Analog 4, 100 μM Analog 11), “Induction of Noxa expression”. The “apoptosis by sub-G1 content” value is “underwent apoptosis” in the data set on SW480 cells [4] and “not normal human fibroblast WI38 cells” with WI38 normal cells. The “expression of DR5, Noxa and cleaved Parp” value in data set [5] (12 or 25 μM, 16 and 24 hours) is “increased expression of DR5, Noxa, and cleaved Parp”.
With `O=c1[nH]cc(F)c(=O)[nH]1` [Analog 5-FU, 5-fluorouracil, reference compound], in the data set on SW480 cells [1] (72 hours, ascending doses), the “toxicity (cell viability reduction), 5-FU versus CPT-11” value is given as “greater toxicity”.
Take `Cn1c(=O)c2c(ncn2C)n(C)c1=O` [caffeine, reference compound]: the “effect on cell cycle G2 checkpoint” value in the data set on cell cycle G2 checkpoint was “can deregulate the cell cycle G2 checkpoint”. The Noxa protein expression entry in data set [6] and in [5] was “dis not induce Noxa expression” each time.
With `CC(=O)CCCCn1c(=O)c2c(ncn2C)n(C)c1=O` [pentoxifylline, reference compound], the Noxa protein expression entry in data set [6] and in [5] was “dis not induce Noxa expression” in each case.
Regarding `Cn1c(=O)c2[nH]cnc2n(C)c1=O` [theophylline, reference compound], the Noxa protein expression entry in [6] and in data set [5] was “dis not induce Noxa expression” in each case.
